Data as given in ChEMBL document CHEMBL1133669 (J Med Chem, 2000).

Experiments:
Carbonic anhydrase 1 = Carbonic anhydrase 1 (Homo sapiens, UniProt P00915)
Description: Inhibitory activity against human carbonic anhydrase I (CA1)

Carbonic anhydrase 4 = biological target: T1, Carbonic anhydrase 4 (Bos taurus, UniProt Q95323)
T1 sequence (Q95323 whole entry): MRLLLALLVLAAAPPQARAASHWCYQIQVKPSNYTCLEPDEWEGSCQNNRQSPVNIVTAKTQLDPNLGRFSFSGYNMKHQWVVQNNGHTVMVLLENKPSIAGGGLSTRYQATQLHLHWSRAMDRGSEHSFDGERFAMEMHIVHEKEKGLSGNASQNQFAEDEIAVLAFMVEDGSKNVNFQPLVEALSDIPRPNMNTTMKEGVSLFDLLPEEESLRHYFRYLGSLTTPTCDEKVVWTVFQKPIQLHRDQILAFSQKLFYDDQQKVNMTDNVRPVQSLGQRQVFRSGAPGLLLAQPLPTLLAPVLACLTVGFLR
Description: Inhibitory activity against bovine carbonic anhydrase IV (CA4), isolated from bovine lung microsomes

Carbonic anhydrase 1, sequence (P00915 whole entry): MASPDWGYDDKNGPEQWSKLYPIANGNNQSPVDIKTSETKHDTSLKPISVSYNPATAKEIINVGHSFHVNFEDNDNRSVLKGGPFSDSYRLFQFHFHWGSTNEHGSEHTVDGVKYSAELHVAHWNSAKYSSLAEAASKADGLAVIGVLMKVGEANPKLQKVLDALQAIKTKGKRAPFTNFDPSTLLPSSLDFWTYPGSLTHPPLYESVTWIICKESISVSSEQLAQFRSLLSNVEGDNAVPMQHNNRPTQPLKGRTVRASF

Ki (Carbonic anhydrase 1) [µM]	Ki (Carbonic anhydrase 4) [µM]	Compound
35	0.45	Cc1cc(C)[n+](CC(=O)NNc2ccc(S(N)(=O)=O)cc2)c(C)c1
0.012	0.009	CCc1cc(-c2ccccc2)cc(CC)[n+]1CC(=O)Nc1ccc(S(=O)(=O)Nc2nnc(S(N)(=O)=O)s2)cc1
0.7	0.036	Cc1cc(-c2ccccc2)cc(C)[n+]1CC(=O)Nc1ccc(S(N)(=O)=O)cc1F
15	0.17	CCc1cc(-c2ccccc2)cc(CC)[n+]1CC(=O)Nc1ccc(S(N)(=O)=O)cc1
0.615	0.055	CCc1cc(-c2ccccc2)cc(CC)[n+]1CC(=O)Nc1ccc(S(N)(=O)=O)cc1Br
0.6	0.035	Cc1cc(-c2ccccc2)cc(C)[n+]1CC(=O)Nc1ccc(S(N)(=O)=O)cc1Br
0.38	0.031	Cc1cc(-c2ccccc2)cc(C)[n+]1CC(=O)Nc1c(S(N)(=O)=O)cc(S(N)(=O)=O)c(Cl)c1Cl
0.31	0.033	CCc1cc(-c2ccccc2)cc(CC)[n+]1CC(=O)Nc1cc(C(F)(F)F)c(S(N)(=O)=O)cc1S(N)(=O)=O
0.011	0.03	CCc1cc(-c2ccccc2)cc(CC)[n+]1CC(=O)Nc1ccc2nc(S(N)(=O)=O)sc2c1
1.7	0.097	CCc1cc(-c2ccccc2)cc(CC)[n+]1CC(=O)OCc1ccc(S(N)(=O)=O)cc1
0.046	0.063	CCc1cc(-c2ccccc2)cc(CC)[n+]1CC(=O)Nc1ccc(S(=O)(=O)Nc2ccc(S(N)(=O)=O)cc2)cc1
1.5	0.08	Cc1cc(C)[n+](CC(=O)NCc2ccc(S(N)(=O)=O)cc2)c(C)c1
16	0.19	Cc1cc(C)[n+](CC(=O)Nc2ccc(S(N)(=O)=O)cc2)c(C)c1
1.45	0.075	CC(C)c1cc(-c2ccccc2)cc(C(C)C)[n+]1CC(=O)NCc1ccc(S(N)(=O)=O)cc1
0.35	0.046	CC(C)c1cc(-c2ccccc2)cc(C(C)C)[n+]1CC(=O)Nc1cc(Cl)c(S(N)(=O)=O)cc1S(N)(=O)=O
0.6	0.056	CC(C)c1cc(-c2ccccc2)cc(C(C)C)[n+]1CC(=O)Nc1ccc(S(N)(=O)=O)cc1Cl
19.6	0.28	Cc1cc(-c2ccccc2)cc(C)[n+]1CC(=O)Nc1cccc(S(N)(=O)=O)c1
0.4	0.035	CCc1cc(-c2ccccc2)cc(CC)[n+]1CC(=O)Nc1c(S(N)(=O)=O)cc(S(N)(=O)=O)c(Cl)c1Cl
0.3	0.033	Cc1cc(-c2ccccc2)cc(C)[n+]1CC(=O)Nc1cc(C(F)(F)F)c(S(N)(=O)=O)cc1S(N)(=O)=O
0.6	0.038	Cc1cc(-c2ccccc2)cc(C)[n+]1CC(=O)Nc1ccc(S(N)(=O)=O)cc1Cl
0.3	0.025	CCc1cc(-c2ccccc2)cc(CC)[n+]1CC(=O)Nc1nnc(S(N)(=O)=O)s1
28	0.34	CCc1cc(-c2ccccc2)cc(CC)[n+]1CC(=O)NNc1ccc(S(N)(=O)=O)cc1
0.775	0.07	CC(C)c1cc(-c2ccccc2)cc(C(C)C)[n+]1CC(=O)NCCc1ccc(S(N)(=O)=O)cc1
0.47	0.049	CC(C)c1cc(-c2ccccc2)cc(C(C)C)[n+]1CC(=O)Nc1c(S(N)(=O)=O)cc(S(N)(=O)=O)c(Cl)c1Cl
0.72	0.046	Cc1cc(-c2ccccc2)cc(C)[n+]1CC(=O)NCCc1ccc(S(N)(=O)=O)cc1
0.013	0.029	Cc1cc(C)[n+](CC(=O)Oc2ccc3nc(S(N)(=O)=O)sc3c2)c(C)c1
0.75	0.044	Cc1cc(C)[n+](CC(=O)Nc2ccc(S(N)(=O)=O)cc2F)c(C)c1
26	0.31	Cc1cc(-c2ccccc2)cc(C)[n+]1CC(=O)NNc1ccc(S(N)(=O)=O)cc1
0.05	0.073	CC(C)c1cc(-c2ccccc2)cc(C(C)C)[n+]1CC(=O)Nc1ccc(S(=O)(=O)Nc2ccc(S(N)(=O)=O)cc2)cc1
